According to patent US4820834A, “Benzodiazepine analogs” (priority 1987, dated 1989):
Read-outs that look alike come from different tables or passages of the source.

Columns and labels:
[1] = biological target: T1, CCK receptor (brain, cerebral cortex) (Cavia porcellus, UniProt H0VZC5); assay: biochemical; type: binding, Male Hartley guinea pigs; conditions: guinea pig cerebral cortex, ^125 I-CCK-33, 25° C., 2 hours
T1 construct: Cerebral cortex was dissected and used as a receptor source; from tissue; host or cells: guinea pig cerebral cortex membranes (male Hartley)
T1 sequence (H0VZC5 1-426): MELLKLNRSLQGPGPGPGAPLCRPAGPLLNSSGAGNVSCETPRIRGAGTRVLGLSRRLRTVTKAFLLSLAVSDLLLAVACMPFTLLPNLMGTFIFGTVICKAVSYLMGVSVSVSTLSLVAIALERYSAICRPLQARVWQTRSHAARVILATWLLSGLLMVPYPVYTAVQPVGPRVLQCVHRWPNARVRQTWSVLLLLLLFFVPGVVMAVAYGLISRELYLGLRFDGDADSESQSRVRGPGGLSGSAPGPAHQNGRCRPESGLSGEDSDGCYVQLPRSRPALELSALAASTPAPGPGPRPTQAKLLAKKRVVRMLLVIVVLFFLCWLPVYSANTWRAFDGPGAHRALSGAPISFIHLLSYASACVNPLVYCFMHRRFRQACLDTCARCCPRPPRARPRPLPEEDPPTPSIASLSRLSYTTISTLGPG
Procedure, shortened: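 Binding of [radiolabeled] CCK-33 measured by gamma counting of centrifuged pellets after 2 h at 25°C. Membranes came from guinea pig brain cortex, suspended in 10 mM HEPES, 5 mM MgCl2, 1 mM EGTA, 0.25 mg/ml bacitracin, 0.4% BSA.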

[2] = biological target: T2, Gastrin receptor (gastric glands) (Cavia porcellus, UniProt H0VZC5); assay: Gastrin Receptor Binding in Guinea Pig Gastric Glands; design: species or system guinea pig (male Hartley); conditions: 25° C., 30 minutes
T2 construct: The washed guinea pig gastric glands prepared as above were resuspended; from tissue; host or cells: guinea pig gastric mucosal glands (male Hartley)
T2 sequence (H0VZC5 1-426): T1 sequence (H0VZC5 1-426)

CCK receptor (pancreas) = biological target: T3, CCK receptor (pancreas) (Rattus norvegicus, UniProt P30551); assay: CCK Receptor Binding (Pancreas): inhibition of ^125 I-CCK-33 binding; design: species or system Male Sprague-Dawley rats; conditions: rat pancreas membranes, ^125 I-CCK-33, 37° C., 30 minutes
T3 construct: The whole pancreas was dissected free of fat tissue and was homogenized; from tissue; host or cells: rat pancreas membranes (Sprague-Dawley)
T3 sequence (P30551 1-444): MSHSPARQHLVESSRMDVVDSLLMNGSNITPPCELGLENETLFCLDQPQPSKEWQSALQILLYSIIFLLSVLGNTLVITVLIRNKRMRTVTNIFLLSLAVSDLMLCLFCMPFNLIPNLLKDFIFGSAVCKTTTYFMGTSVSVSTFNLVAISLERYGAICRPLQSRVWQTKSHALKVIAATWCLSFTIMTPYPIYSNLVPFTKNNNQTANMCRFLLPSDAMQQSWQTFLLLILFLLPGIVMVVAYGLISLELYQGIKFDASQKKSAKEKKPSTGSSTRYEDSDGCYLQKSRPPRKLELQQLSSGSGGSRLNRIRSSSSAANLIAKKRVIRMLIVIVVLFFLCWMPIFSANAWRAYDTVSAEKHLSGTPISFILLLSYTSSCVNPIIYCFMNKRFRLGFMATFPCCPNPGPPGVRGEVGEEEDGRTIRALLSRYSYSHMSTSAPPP
Procedure, shortened: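 Bound ^125I-CCK-33 was counted in pellets after a 30 min, 37° C incubation followed by centrifugation. Membranes came from male Sprague-Dawley rat pancreas, assayed in Tris HCl pH 7.7 containing DTT, bacitracin, PMSF and o-phenanthroline. For Scatchard analysis, tracer was diluted with rising unlabelled CCK-33.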

[3] = read-out: IC50 ^125 I-CCK Brain
[4] = ^125 I-gastrin, read-out: IC50 ^125 I-Gastrin Gastric Glands
[5] = IC50 ^125 I-Gastrin Gastric Glands
[6] = read-out: IC50 ^125 I-CCK Pancreas

`CCOC(=O)CN1C(=O)C(NC(=O)Cc2ccc(Cl)cc2)N=C(c2ccccc2)c2ccccc21` (stereo not drawn) [Example 239, 3-(((4-Chlorophenyl)acetyl)amino)-2,3-dihydro-2-oxo-5-phenyl-1H-1,4-benzodiazepine-1-acetic acid ethyl ester] was tested, and the IC50 [1, 3] was 38 nM, the IC50 [2, 4] was 4.5 nM and the IC50 (CCK receptor (pancreas); IC50 ^125 I-CCK Pancreas) was 1700 nM.
With `O=C(Cc1ccc(Cl)cc1)NC1N=C(c2ccccc2)c2ccccc2NC1=O` (stereo not drawn) [Example 240, 4-Chloro-N-(2,3-dihydro-2-oxo-5-phenyl-1,4-benzodiazepin-3-yl)-benzeneacetamide] the IC50 [1, 3] was 2900 nM, the IC50 [2, 4] was 7000 nM and the IC50 (CCK receptor (pancreas); IC50 ^125 I-CCK Pancreas) was 1300 nM.
In the case of `CCOC(=O)C(C)N1C(=O)C(NC(=O)OCc2ccccc2)N=C(c2ccccc2)c2ccccc21` (stereo not drawn) [Example 241, 2,3-Dihydro-alpha-methyl-2-oxo-5-phenyl-3-((phenylmethoxy)carbonyl)amino-1H-1,4-benzodiazepine-1-acetic acid ethyl ester], the IC50 [1, 3] is reported as 1400 nM, the IC50 [2, 4] is reported as 950 nM and the IC50 (CCK receptor (pancreas); IC50 ^125 I-CCK Pancreas) is reported as 930 nM.
With `CCOC(=O)C(C)N1C(=O)C(NC(=O)OCc2ccccc2)N=C(c2ccccc2)c2ccccc21` (stereo not drawn) [Example 242] the IC50 [1, 3] was 2300 nM, the IC50 [2, 4] was 870 nM and the IC50 (CCK receptor (pancreas); IC50 ^125 I-CCK Pancreas) was 900 nM.
In the case of `CC(C(=O)O)N1C(=O)C(NC(=O)OCc2ccccc2)N=C(c2ccccc2)c2ccccc21` (stereo not drawn) [Example 243, 2,3-Dihydro-alpha-methyl-2-oxo-5-phenyl-3-((phenylmethoxy)carbonyl)amino-1H-1,4-benzodiazepine-1-acetic acid], the IC50 [1, 3] is reported as 2800 nM, the IC50 [2, 4] is reported as 3600 nM and the IC50 (CCK receptor (pancreas); IC50 ^125 I-CCK Pancreas) is reported as 680 nM.
Compound `CCN(CC)C(=O)C(C)N1C(=O)C(NC(=O)OCc2ccccc2)N=C(c2ccccc2)c2ccccc21` (stereo not drawn) [Example 244, (1-(2-(Diethylamino)-1-methyl-2-oxoethyl)-2,3-dihydro-2-oxo-5-phenyl-1H-1,4-benzodiazepin-3-yl)-carbamic acid phenylmethyl ester] has an IC50 [1, 3] of 740 nM, an IC50 [2, 4] of 500 nM and an IC50 (CCK receptor (pancreas); IC50 ^125 I-CCK Pancreas) of 950 nM.
Work on `CN1C(=O)C(NC(=O)Oc2ccc([N+](=O)[O-])cc2)N=C(c2ccccc2F)c2ccccc21` (stereo not drawn) [Example 245, (5-(2-Fluorophenyl)-2,3-dihydro-1-methyl-2-oxo-1H-1,4-benzodiazepin-3-yl)-carbamic acid-4-nitrophenyl ester] yielded an IC50 ([1]; IC50 ^125 I-CCK Brain) of 92000 nM, an IC50 [2, 5] of 12000 nM and an IC50 (CCK receptor (pancreas); IC50 ^125 I-CCK Pancreas) of 7200 nM.
Compound `COc1cccc(NC(=O)NC2N=C(c3ccccc3F)c3ccccc3N(C)C2=O)c1` (stereo not drawn) [Example 246, N-(5-(2-Fluorophenyl)-2,3-dihydro-1-methyl-2-oxo-1H-1,4-benzodiazepin-3-yl)-N'-(3-methoxyphenyl)-urea] has an IC50 [1, 3] of 2 nM, an IC50 [2, 4] of 2.4 nM and an IC50 (CCK receptor (pancreas); IC50 ^125 I-CCK Pancreas) of 1.9 nM.
`COc1cccc(NC(=O)NC2N=C(c3ccccc3)c3ccccc3N(C)C2=O)c1` (stereo not drawn) [Example 247, N-(2,3-Dihydro-1-methyl-2-oxo-5-phenyl-1H-1,4-benzodiazepin-3-yl)-N'-(3-methoxyphenyl)-urea] gave an IC50 ([1]; IC50 ^125 I-CCK Brain) of 3 nM, an IC50 [2, 4] of 1.6 nM and an IC50 (CCK receptor (pancreas); [6]) of 6.2 nM.
Work on `Cc1ccc(S(=O)(=O)NC(=O)NC2N=C(c3ccccc3)c3ccccc3N(C)C2=O)cc1` (stereo not drawn) [Example 248, N-(((2,3-Dihydro-1-methyl-2-oxo-5-phenyl-1H-1,4-benzodiazepin-3-yl)amino)carbonyl)-4-methylbenzenesulfonamide] yielded an IC50 [1, 3] of 5300 nM, an IC50 [2, 4] of 2200 nM and an IC50 (CCK receptor (pancreas); IC50 ^125 I-CCK Pancreas) of 20000 nM.
`CN1C(=O)C(NC(=O)Nc2ccccc2)N=C(c2ccccc2)c2ccccc21` (stereo not drawn) [Example 250, N-(2,3-Dihydro-1-methyl-2-oxo-5-phenyl-1H-1,4-benzodiazepin-3-yl)-N'-phenylurea] showed an IC50 [1, 3] of 32 nM, an IC50 [2, 4] of 9 nM and an IC50 (CCK receptor (pancreas); [6]) of 8.3 nM.
Work on `CN1C(=O)C(NC(=O)NCc2ccccc2)N=C(c2ccccc2)c2ccccc21` (stereo not drawn) [Example 251, N-(2,3-Dihydro-1-methyl-2-oxo-5-phenyl-1H-1,4-benzodiazepin-3-yl)-N'-phenylmethylurea] yielded an IC50 [1, 3] of 860 nM, an IC50 [2, 4] of 420 nM and an IC50 (CCK receptor (pancreas); [6]) of 490 nM.
`Cc1ccc(NC(=O)NC2N=C(c3ccccc3)c3ccccc3N(C)C2=O)cc1` (stereo not drawn) [Example 252, N-(2,3-Dihydro-1-methyl-2-oxo-5-phenyl-1H-1,4-benzodiazepin-3-yl)-N'-(4-methylphenyl)-urea] gave an IC50 ([1]; IC50 ^125 I-CCK Brain) of 6 nM, an IC50 [2, 5] of 3.5 nM and an IC50 (CCK receptor (pancreas); [6]) of 57 nM.
With `COc1ccc(NC(=O)NC2N=C(c3ccccc3)c3ccccc3N(C)C2=O)cc1` (stereo not drawn) [Example 253, N-(2,3-Dihydro-1-methyl-2-oxo-5-phenyl-1H-1,4-benzodiazepin-3-yl)-N'-(4-methoxvphenyl)-urea] the IC50 ([1]; IC50 ^125 I-CCK Brain) was 20 nM, the IC50 [2, 5] was 45 nM and the IC50 (CCK receptor (pancreas); IC50 ^125 I-CCK Pancreas) was 160 nM.
Compound `CN1C(=O)C(NC(=O)Nc2ccccc2Cl)N=C(c2ccccc2)c2ccccc21` (stereo not drawn) [Example 254, N-(2-Chlorophenyl)-N'-(2,3-dihydro-1-methyl-2-oxo-5-phenyl-1H-1,4-benzodiazepin-3-yl)-urea] has an IC50 [1, 3] of 320 nM, an IC50 [2, 4] of 110 nM and an IC50 (CCK receptor (pancreas); IC50 ^125 I-CCK Pancreas) of 0.9 nM.
Compound `CN1C(=O)C(NC(=O)Nc2ccc(Br)cc2)N=C(c2ccccc2)c2ccccc21` (stereo not drawn) [Example 255] has an IC50 ([1]; IC50 ^125 I-CCK Brain) of 48 nM, an IC50 [2, 5] of 32 nM and an IC50 (CCK receptor (pancreas); [6]) of 130 nM.
`CN1C(=O)C(NC(=O)Nc2ccc([N+](=O)[O-])cc2)N=C(c2ccccc2)c2ccccc21` (stereo not drawn) [Example 256, N-(4-Nitrophenyl)-N'-(2,3-dihydro-1-methyl-2-oxo-5-phenyl-1H-1,4-benzodiazepin-3-yl)-urea] gave an IC50 [1, 3] of 46 nM, an IC50 [2, 4] of 9.8 nM and an IC50 (CCK receptor (pancreas); [6]) of 210 nM.
`CN1C(=O)C(NC(=O)Nc2ccc(Cl)c(Cl)c2)N=C(c2ccccc2)c2ccccc21` (stereo not drawn) [Example 257, N-(3,4-Dichlorophenyl)-N'-(2,3-dihydro-1-methyl-2-oxo-5-phenyl-1H-1,4-benzodiazepin-3-yl)-urea] showed an IC50 ([1]; IC50 ^125 I-CCK Brain) of 67 nM, an IC50 [2, 5] of 48 nM and an IC50 (CCK receptor (pancreas); [6]) of 26 nM.
Compound `CN1C(=O)C(NC(=O)Nc2ccc(Cl)cc2Cl)N=C(c2ccccc2)c2ccccc21` (stereo not drawn) [Example 258, N-(2,4-Dichlorophenyl)-N'-(2,3-dihydro-1-methyl-2-oxo-5-phenyl-1H-1,4-benzodiazepin-3-yl)-urea] has an IC50 ([1]; IC50 ^125 I-CCK Brain) of 220 nM, an IC50 [2, 5] of 60 nM and an IC50 (CCK receptor (pancreas); [6]) of 3 nM.
With `CN1C(=O)C(NC(=O)Nc2ccc(F)cc2)N=C(c2ccccc2)c2ccccc21` (stereo not drawn) [Example 259, N-(2,3-Dihydro-1-methyl-2-oxo-5-phenyl-1H-1,4-benzodiazepin-3-yl)-N'-(4-fluorophenyl)-urea] the IC50 [1, 3] was 66 nM, the IC50 [2, 4] was 14 nM and the IC50 (CCK receptor (pancreas); [6]) was 46 nM.
In the case of `CN1C(=O)C(NC(=O)NC(C)(C)C)N=C(c2ccccc2)c2ccccc21` (stereo not drawn) [Example 260, N-(2,3-Dihydro-1-methyl-2-oxo-5-phenyl-1H-1,4-benzodiazepin-3-yl)-N'-(1,1-dimethylethyl)-urea], the IC50 ([1]; IC50 ^125 I-CCK Brain) is reported as 38000 nM, the IC50 [2, 5] is reported as greater than 1000 nM and the IC50 (CCK receptor (pancreas); [6]) is reported as 6800 nM.
`C[C@@H](NC(=O)NC1N=C(c2ccccc2)c2ccccc2N(C)C1=O)c1ccccc1` (stereo partly drawn) [Example 261, N-(2,3-Dihydro-1-methyl-2-oxo-5-phenyl-1H-1,4-benzodiazepin-3-yl)-N'-((R)1-phenylethyl)-urea] gave an IC50 ([1]; IC50 ^125 I-CCK Brain) of 11000 nM, an IC50 [2, 4] of 3200 nM and an IC50 (CCK receptor (pancreas); IC50 ^125 I-CCK Pancreas) of 430 nM.
`CN1C(=O)C(NC(=O)NC2CCCCC2)N=C(c2ccccc2)c2ccccc21` (stereo not drawn) [Example 262, N-Cyclohexyl-N'-(2,3-dihydro-1-methyl-2-oxo-5-phenyl-1H-1,4-benzodiazepin-3-yl)-urea] showed an IC50 ([1]; IC50 ^125 I-CCK Brain) of 3000 nM, an IC50 [2, 5] of 390 nM and an IC50 (CCK receptor (pancreas); [6]) of 2400 nM.
`CN1C(=O)C(NC(=O)Nc2cccc([N+](=O)[O-])c2)N=C(c2ccccc2)c2ccccc21` (stereo not drawn) [Example 264, N-(2,3-Dihydro-1-methyl-2-oxo-5-phenyl-1H-1,4-benzodiazepin-3-yl)-N'-(3-nitrophenyl)-urea] gave an IC50 ([1]; IC50 ^125 I-CCK Brain) of 11 nM, an IC50 [2, 5] of 6 nM and an IC50 (CCK receptor (pancreas); [6]) of 34 nM.
